According to patent US6458781B1, “Substituted diarylalkyl amides as calcium channel antagonists” (priority 1998, dated 2002):
pIC50: −log10 of the molar value. Where a name gives a salt, the structure may show the parent alone.

How the values were obtained:
[1] = test system: K+ channels in SCG neurons; assay: Potassium current in superior cervical ganglion neurons (whole-cell voltage clamp); assay type: cell-based, rat
Experimental: (§1) Electrophysiological techniques were used to measure the effects of experimental compounds on voltage-gated Ca^2+, […] , and K^+ channels. […] Sodium and potassium channel currents were measured from acutely dissociated SCG neurons.
(§2) Dissociation of the neurons from the ganglia was accomplished using a 30 to 45 minute treatment in 0.25% trypsin, similar to methods outlined in Higgins, et al. (see Higgins D. et al. “Tissue culture of mammalian autonomic neurons.” In Banker G. and Goslin K. (Eds), Culturing Nerve Cells, Cambridge, Mass., MIT Press [1991]).
(§3) Ca^2+, Na^+, and K^+ channel currents in SCG neurons were measured using conventional single electrode whole-cell voltage-clamp techniques, outlined in Hamill et al., (see Hamill O. P. et al. “Improved patch-clamp techniques for high resolution current recordings from cells and cell-free membrane patches.”Pflugers Arch., 1981;391:85-100). For Ca^2+ channel experiments, the external bathing solution contained tetraethylammonium chloride (100 mM), choline chloride (52 mM), NaCl (15 mM), HEPES (10 mM), glucose (5.6 mM), CaCl2 (2 mM), and MgCl2 (0.8 mM), pH 7.35 with KOH; with the internal pipette solution containing cesium methane sulfonate (140 mM), EGTA (10 mM), and HEPES (10 mM), supplemented with 5 mM Mg^2+-ATP on the day of the experiment, pH 7.4 with CsOH. For Na^+ and K^+ channel experiments, the external bathing solution contained NaCl (150 mM), KCl (5 mM), MgCl2 (1.1 mM), CaCl2 (2.6 mM), Na-HEPES (10 mM), and glucose (10 mM), pH 7.4; with the internal pipette solution containing KCl (80 mM), K-gluconate (50 mM), HEPES (10 mM), and EGTA (10 mM), pH 7.4 with KOH. Experimental compounds were diluted into the external solution and applied to the soma of cells by local perfusion from large diameter (20-50 μm) glass micropipettes or from a U-tube applicator.
For Na^+ and K^+ channel currents, following the determination of the I/V relationship for each cell in control solution, currents were evoked from a holding potential between −65 and −55 mV by stepping every 10 sec to a test potential of either 0 mV for Na^+ or +50 mV for K^+ current for a duration of 35 msec. Peak inward current was measured for Na^+ and sustained current for K^+ channel currents. […] Test compounds were applied until steady-state block was achieved. Data were expressed as percent inhibition of control amplitudes for Na^+ and K^+ channel currents.

[2] = biological target: T1, N-type Ca2+ channels in cultured superior cervical ganglion (SCG) neurons (Rattus norvegicus, UniProt Q02294); assay: Calcium current in superior cervical ganglion neurons (whole-cell voltage clamp); assay type: cell-based; conditions: for inhibition at 1 µM: read-out: SCG Ca, % blockage at 1 μM; for inhibition at 10 µM: read-out: SCG Ca, % blockage at 10 μM; for pIC50: read-out: SCG Ca, IC50
T1 construct: from tissue
Experimental: as §1, §2, §3
After obtaining a whole-cell recording, Ca^2+ channels were elicited by stepping to test potentials between −40 and +20 mV for 120 msec from the holding potential of −90 mV to determine if the amplitude of the current and clamp control were adequate for evaluation of drug effects. Ca^2+ channel currents were evoked by stepping from a holding potentials between −65 mV and −55 mV to a test potential of +20 mV for 150 msec every 40 seconds. The amplitude of the Ca^2+ channel currents were compared before and during drug application and drug effects expressed as percent inhibition of the amplitude of control currents.

[3] = test system: electroshock-induced tonic extensor seizures in CF-1 mice; assay: Maximal electroshock testing; assay type: in vivo; conditions: protected/tested
Experimental: Maximal Electroshock Testing
In this test, four representative compounds were tested for their anticonvulsant effects using the procedure described below.
Male CF-1 mice, 20 to 28 g, from Charles River Laboratories, Portage, Mich. were used in all experiments. Groups of 10 mice each were given various intravenous doses of test compound in aqueous solution with 10% Emulphan® Surfactant in a volume of 10 mL/kg of body weight. Electroshock was delivered by corneal electrodes with 60 Hz alternating current (50 mA root-mean-squared for 0.2 seconds) using a constant-current stimulator (Wahlquist Instruments, Salt Lake City, Utah). Untreated or saline-treated mice reliably had tonic extensor seizures with rearward extension of hindlimbs more than 3 seconds. These methods are similar to those published by Krall R. L.; Penry J. K.; White B. G.; and Kupferberg H. K. Antiepileptic Drug Development II. Anticonvulsant Drug Screening, Epilepsia, 1978; 19:409-428.

[4] = 10 mg/Kg iv, 15 min posttreatment
[5] = 30 mg/Kg iv, 15 min posttreatment

T1 sequence (Q02294 whole entry): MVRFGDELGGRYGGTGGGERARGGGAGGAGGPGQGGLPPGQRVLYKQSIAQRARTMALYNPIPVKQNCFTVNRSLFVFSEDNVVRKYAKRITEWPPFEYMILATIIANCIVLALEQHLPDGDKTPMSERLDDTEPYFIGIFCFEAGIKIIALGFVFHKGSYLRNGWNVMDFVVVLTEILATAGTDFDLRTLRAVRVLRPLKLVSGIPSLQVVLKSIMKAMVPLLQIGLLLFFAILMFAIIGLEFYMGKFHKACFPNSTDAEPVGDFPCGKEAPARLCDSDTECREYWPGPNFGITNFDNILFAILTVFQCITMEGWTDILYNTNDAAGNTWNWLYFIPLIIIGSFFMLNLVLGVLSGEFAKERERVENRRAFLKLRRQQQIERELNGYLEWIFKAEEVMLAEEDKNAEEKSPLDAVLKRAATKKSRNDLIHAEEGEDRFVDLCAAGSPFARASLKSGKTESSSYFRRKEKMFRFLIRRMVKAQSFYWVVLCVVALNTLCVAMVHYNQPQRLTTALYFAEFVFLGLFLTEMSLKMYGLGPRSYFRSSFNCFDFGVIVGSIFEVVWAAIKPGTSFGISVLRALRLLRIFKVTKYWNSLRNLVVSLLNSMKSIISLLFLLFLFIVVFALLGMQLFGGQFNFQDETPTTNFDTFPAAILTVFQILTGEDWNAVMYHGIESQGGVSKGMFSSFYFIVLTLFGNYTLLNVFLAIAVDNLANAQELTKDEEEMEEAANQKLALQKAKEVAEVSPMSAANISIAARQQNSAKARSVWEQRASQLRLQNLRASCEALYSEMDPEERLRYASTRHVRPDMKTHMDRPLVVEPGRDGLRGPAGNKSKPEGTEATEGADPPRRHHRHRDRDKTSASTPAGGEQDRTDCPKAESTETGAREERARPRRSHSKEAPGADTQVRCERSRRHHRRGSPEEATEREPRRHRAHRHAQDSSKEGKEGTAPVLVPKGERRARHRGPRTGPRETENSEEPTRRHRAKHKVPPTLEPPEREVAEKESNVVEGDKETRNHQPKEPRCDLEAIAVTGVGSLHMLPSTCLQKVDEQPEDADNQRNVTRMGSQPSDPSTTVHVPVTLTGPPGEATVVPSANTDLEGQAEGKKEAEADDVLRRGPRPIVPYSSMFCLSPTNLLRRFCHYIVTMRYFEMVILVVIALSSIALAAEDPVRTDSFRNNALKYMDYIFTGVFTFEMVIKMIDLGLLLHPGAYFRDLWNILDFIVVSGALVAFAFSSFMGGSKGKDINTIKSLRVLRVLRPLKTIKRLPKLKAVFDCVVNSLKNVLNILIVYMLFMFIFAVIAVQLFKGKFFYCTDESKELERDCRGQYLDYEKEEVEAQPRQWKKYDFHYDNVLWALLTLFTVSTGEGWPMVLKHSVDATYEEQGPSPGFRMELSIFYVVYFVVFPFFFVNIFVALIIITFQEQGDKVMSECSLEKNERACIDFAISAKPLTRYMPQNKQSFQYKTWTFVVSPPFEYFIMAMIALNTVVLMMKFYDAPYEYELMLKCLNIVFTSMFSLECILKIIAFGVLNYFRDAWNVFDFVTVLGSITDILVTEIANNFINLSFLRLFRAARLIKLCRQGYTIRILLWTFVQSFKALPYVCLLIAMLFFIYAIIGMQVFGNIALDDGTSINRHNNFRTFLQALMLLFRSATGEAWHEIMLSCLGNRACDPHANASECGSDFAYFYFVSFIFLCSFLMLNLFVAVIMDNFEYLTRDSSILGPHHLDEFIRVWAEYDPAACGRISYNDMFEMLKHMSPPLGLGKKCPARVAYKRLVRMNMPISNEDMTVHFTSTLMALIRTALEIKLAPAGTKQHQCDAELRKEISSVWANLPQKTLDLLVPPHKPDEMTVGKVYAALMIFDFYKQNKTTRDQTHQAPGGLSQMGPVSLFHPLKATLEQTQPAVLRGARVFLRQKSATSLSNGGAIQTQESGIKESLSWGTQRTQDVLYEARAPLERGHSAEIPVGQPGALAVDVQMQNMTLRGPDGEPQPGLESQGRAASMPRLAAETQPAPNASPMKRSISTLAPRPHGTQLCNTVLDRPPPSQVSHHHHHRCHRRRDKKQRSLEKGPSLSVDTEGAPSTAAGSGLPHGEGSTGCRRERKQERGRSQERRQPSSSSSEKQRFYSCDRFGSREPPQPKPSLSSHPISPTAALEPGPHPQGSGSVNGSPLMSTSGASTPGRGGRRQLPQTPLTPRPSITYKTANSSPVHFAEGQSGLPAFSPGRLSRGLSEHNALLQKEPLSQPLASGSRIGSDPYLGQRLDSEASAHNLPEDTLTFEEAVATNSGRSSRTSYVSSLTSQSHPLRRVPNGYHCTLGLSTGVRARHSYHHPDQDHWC
T1 sequence (P54290 25-944 partner limits assumed): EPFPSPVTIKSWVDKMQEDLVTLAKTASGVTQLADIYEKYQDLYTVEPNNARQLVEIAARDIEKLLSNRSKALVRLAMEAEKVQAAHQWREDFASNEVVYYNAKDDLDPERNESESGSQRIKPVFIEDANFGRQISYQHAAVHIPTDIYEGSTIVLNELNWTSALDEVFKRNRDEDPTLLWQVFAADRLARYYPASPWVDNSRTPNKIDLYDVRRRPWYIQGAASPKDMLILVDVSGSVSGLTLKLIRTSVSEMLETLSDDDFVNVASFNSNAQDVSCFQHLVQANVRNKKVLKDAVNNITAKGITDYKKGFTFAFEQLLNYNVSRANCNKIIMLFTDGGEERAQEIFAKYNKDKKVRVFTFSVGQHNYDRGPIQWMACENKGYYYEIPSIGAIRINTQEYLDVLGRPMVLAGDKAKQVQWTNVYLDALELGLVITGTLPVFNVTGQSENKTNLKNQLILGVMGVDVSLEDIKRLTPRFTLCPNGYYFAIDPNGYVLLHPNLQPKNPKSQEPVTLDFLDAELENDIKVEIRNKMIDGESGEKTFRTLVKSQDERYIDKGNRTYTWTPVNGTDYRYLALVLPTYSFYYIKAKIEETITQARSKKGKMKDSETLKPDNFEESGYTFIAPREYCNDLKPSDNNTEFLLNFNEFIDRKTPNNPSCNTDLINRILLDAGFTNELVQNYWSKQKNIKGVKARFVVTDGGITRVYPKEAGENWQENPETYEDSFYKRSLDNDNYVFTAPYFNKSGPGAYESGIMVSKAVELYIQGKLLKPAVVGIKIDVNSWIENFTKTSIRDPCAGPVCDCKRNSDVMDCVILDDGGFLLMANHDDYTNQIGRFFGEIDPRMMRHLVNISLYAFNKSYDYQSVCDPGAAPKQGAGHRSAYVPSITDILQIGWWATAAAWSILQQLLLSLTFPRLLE
T1 sequence (P54290 945-1091 partner limits assumed): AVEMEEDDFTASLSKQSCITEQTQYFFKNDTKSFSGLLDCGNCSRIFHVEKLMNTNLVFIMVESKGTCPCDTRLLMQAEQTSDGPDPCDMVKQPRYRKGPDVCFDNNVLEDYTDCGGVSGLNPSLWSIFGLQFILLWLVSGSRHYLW
T1 sequence (P54287 whole entry partner): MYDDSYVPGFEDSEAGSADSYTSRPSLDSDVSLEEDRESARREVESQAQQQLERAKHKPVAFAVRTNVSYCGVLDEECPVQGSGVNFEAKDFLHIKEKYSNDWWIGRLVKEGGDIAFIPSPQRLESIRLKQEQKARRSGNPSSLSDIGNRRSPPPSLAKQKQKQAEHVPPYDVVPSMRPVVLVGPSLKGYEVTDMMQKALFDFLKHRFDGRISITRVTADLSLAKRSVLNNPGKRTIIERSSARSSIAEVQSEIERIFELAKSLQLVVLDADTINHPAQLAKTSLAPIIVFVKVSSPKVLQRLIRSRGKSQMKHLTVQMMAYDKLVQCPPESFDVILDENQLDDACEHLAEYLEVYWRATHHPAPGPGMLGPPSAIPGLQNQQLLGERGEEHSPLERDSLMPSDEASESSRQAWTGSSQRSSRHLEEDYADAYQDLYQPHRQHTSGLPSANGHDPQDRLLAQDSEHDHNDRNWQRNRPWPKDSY

inhibition at 1 µM [2] [%] | inhibition at 10 µM [2] [%] | Compound | SCG K, % blockage at 10 μM [1] [% @ 10] | SCG K, % blockage at 1 μM [1] [% @ 1] | also measured
18 | 72 | CC(C)[C@H](NC(=O)N1CCCCCC1)C(=O)N1CCN(C(c2ccc(F)cc2)c2ccc(F)cc2)CC1 [Example 33, (S)-Azepane-1-carboxylic acid (1-{4-[bis-(4-fluoro-phenyl)-methyl]-piperazine-1-carbonyl}-2-methyl-propyl)-amide] | 39 |  | 
 |  | CC(C)C[C@H](NCC1CCCCC1)C(=O)NCCCC(c1ccc(F)cc1)c1ccc(F)cc1 [Example 8, (S)-2-(Cyclohexylmethyl-amino)-4-methyl-pentanoic acid [4,4-bis-(4-fluoro-phenyl)-butyl]-amide monohydrochloride] | 50 |  | Number of Mice Protected from Tonic Convulsions [3, 4]: 0/4; Number of Mice Protected from Tonic Convulsions ([3]; 10 mg/Kg iv, 45 min posttreatment): 0/5; Number of Mice Protected from Tonic Convulsions [3, 5]: 4/4; Number of Mice Protected from Tonic Convulsions ([3]; 30 mg/Kg iv, 45 min posttreatment): 2/2; pIC50 [2]: 5.62
45 | 98 | CC(C)C[C@H](N)C(=O)NCCCC(c1ccc(F)cc1)c1ccc(F)cc1 [Example 7, (S)-2-Amino-4-methyl-pentanoic acid [4,4-bis-(4-fluoro-phenyl)-butyl]-amide monohydrochloride] | 90 |  | 
 |  | CC(C)=CCN[C@@H](CC(C)C)C(=O)NCCCC(c1ccc(F)cc1)c1ccc(F)cc1 [Example 9, (S)-4-Methyl-2-(3-methyl-but-2-enylamino)-pentanoic acid [4,4-bis-(4-fluoro-phenyl)-butyl]-amide monohydrochloride] |  |  | Number of Mice Protected from Tonic Convulsions [3, 4]: 10/10; Number of Mice Protected from Tonic Convulsions [3, 5]: 10/10; pIC50 [1]: 5.04; pIC50 [2]: 4.28
 | 8 | CC(C)C[C@@H](C(=O)NCCCC(c1ccc(F)cc1)c1ccc(F)cc1)N(C)Cc1ccc(C(C)(C)C)cc1.Cl [Example 14, (S)-2-[(4-tert-Butyl-benzyl)-methyl-amino]-4-methyl-pentanoic acid [4,4-bis-(4-fluoro-phenyl)-butyl]-amide monohydrochloride] | −1 |  | melting point: 87 to 95 °C
15 | 75 | CC(C)C[C@@H](C(=O)N1CCN(C(c2ccc(F)cc2)c2ccc(F)cc2)CC1)N(C)C [Example 39, (S)-1-{4-[Bis-(4-fluoro-phenyl)-methyl]-piperazin-1-yl}-2-dimethylamino-4-methyl-pentan-1-one dihydrochloride] |  | 6 | 
2.5 | 62 | CC(C)C[C@H](NC(=O)N1CCCCCC1)C(=O)N1CCN(C(c2ccc(F)cc2)c2ccc(F)cc2)CC1 [Example 31, (S)-Azepane-1-carboxylic acid (1-{4-[bis-(4-fluoro-phenyl)-methyl]-piperazine-1-carbonyl}-3-methyl-butyl)-amide] |  |  | 
55 | 88 | CC(C)CCN(C)[C@@H](CC(C)C)C(=O)NCCCC(c1ccc(F)cc1)c1ccc(F)cc1 [Example 28, (S)-4-Methyl-2-[methyl-(3-methyl-butyl)-amino]-pentanoic acid [4,4-bis-(4-fluoro-phenyl)-butyl]-amide monohydrochloride] | 47 | 3 | 
18 | 81 | CC(C)C[C@@H](CN1CCN(C(c2ccc(F)cc2)c2ccc(F)cc2)CC1)NC(=O)N1CCCCCC1 [Example 36, (S)-Azepane-1-carboxylic acid (1-{4-[bis-(4-fluoro-phenyl)-methyl]-piperazin-1-ylmethyl}-3-methyl-butyl)-amide] | 27 |  | 

Compound | inhibition at 1 µM [2] [%] | inhibition at 10 µM [2] [%] | SCG K, % blockage at 10 μM [1] [% @ 10] | SCG K, % blockage at 1 μM [1] [% @ 1] | also measured
CN[C@@H](CC(C)C)C(=O)NCCCC(c1ccc(F)cc1)c1ccc(F)cc1 [Example 12, (S)-4-Methyl-2-methylamino-pentanoic acid [4,4-bis-(4-fluoro-phenyl)-butyl]-amide monohydrochloride] | 3 | 94 | 58 | 15 | 
